Source: patent publication US9975900B2, “Substituted imidazo[1,2-α]pyrazines for treating spinal muscular atrophy” (Hoffmann-La Roche Inc., priority 2014, dated 2018)
Counter-ions that a name gives are not always drawn.

How the values were obtained:
[1] = system: full length SMN2 minigene mRNA (HEK293H cells stably transfected with the SMN2-A minigene construct); assay: RT-qPCR assay for SMN2 minigene pre-mRNA splicing in cultured cells; format: cell-based; details: Homo sapiens, HEK293-H, 24 hours, 7-point concentration curve, concentration giving 1.5-fold FL SMN2mini mRNA vs vehicle, read-out: EC1.5x minigene (EC1.5x concentration for production of full length SMN2 minigene mRNA)
In short: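 HEK293H cells stably carrying SMN2-A minigene were treated 24 h at 37 °C with a 7-point, 3.16-fold compound series, in duplicate. Minigene-specific exon 7–exon 8 mRNA measured by multiplex RT-qPCR with GAPDH normalisation; fold over vehicle by modified ΔΔCt, reported as EC1.5×.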

[2] = system: SMN protein in SMA patient fibroblast cells (GM03813); assay: SMN protein assay (HTRF) in cultured cells; format: cell-based; details: Homo sapiens, SMA Type 1 patient fibroblasts, 48 hours; for EC (1.5-fold): 7-point concentration curve, concentration giving 1.5 times SMN protein vs vehicle, read-out: EC1.5x SMN protein (EC1.5x concentration for SMN protein expression); for maximal fold induction: fold increase relative to vehicle control, read-out: Max. fold increase of SMN protein
In short: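 SMA patient fibroblasts (5,000 cells/well, DMEM-10% FBS) treated 48 h at 37 °C with 7-point, 3.16-fold dilutions, in triplicate. Lysates (RIPA) read overnight by HTRF with anti-SMN d2/cryptate at 665/620 nm. ΔF versus blank gives fold increase over vehicle, from which EC1.5× and maximum fold increase are derived.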

SMILES	EC (1.5-fold) [1] [µM]	EC (1.5-fold) [2] [µM]	maximal fold induction [2]
Cc1cn2cc(NC(=O)c3ccc(N4CCN5CCC[C@@H]5C4)cc3F)ncc2n1 [Example 7, 4-[(8aR)-3,4,6,7,8,8a-hexahydro-1H-pyrrolo[1,2-a]pyrazin-2-yl]-2-fluoro-N-(2-methylimidazo[1,2-a]pyrazin-6-yl)benzamide]	0.0484	0.872	1.64
CCOc1cc(N2CCCNCC2)ccc1C(=O)Nc1cn2cc(C)nc2cn1 [Example 9, 4-(1,4-diazepan-1-yl)-2-ethoxy-N-(2-methylimidazo[1,2-a]pyrazin-6-yl)benzamide]	0.098	0.345	1.73
Cc1cn2cc(NC(=O)c3ccc(N4CCNC(C)C4)c(F)c3F)ncc2n1 (stereo not drawn) [Example 30, 2,3-difluoro-N-(2-methylimidazo[1,2-a]pyrazin-6-yl)-4-(3-methylpiperazin-1-yl)benzamide hydrochloride]	0.165	0.603	1.82
Cc1cn2cc(NC(=O)c3ccc(N4CCNC5(CC5)C4)cc3F)ncc2n1 [Example 26, 4-(4,7-diazaspiro[2.5]octan-7-yl)-2-fluoro-N-(2-methylimidazo[1,2-a]pyrazin-6-yl)benzamide hydrochloride]	0.0596	1.61	1.57
